Measurements as given in patent US8299021B2, “Macrocyclic inhibitors of hepatitis C virus replication” (InterMune, Inc., priority 2005, dated 2012).
Read-outs that look alike come from different tables or passages of the source.

Columns and labels:
[1] = biological target: T1, NS3-NS4 protease (full-length NS3/NS4A-2) (Hepatitis C virus genotype 1a, UniProt P27958); test: NS3-NS4 protease assay / NS3 inhibition assay (RETS1 substrate, fluorescence kinetic read); assay type: biochemical; details: read-out: NS3-NS4 IC50
T1 construct: Recombinant E. coli or Baculovirus full-length NS3 was diluted to 3.33 μM with assay buffer; made in house; host or cells: E. coli or baculovirus (insect cells)
T1 sequence (P27958 1027-1657): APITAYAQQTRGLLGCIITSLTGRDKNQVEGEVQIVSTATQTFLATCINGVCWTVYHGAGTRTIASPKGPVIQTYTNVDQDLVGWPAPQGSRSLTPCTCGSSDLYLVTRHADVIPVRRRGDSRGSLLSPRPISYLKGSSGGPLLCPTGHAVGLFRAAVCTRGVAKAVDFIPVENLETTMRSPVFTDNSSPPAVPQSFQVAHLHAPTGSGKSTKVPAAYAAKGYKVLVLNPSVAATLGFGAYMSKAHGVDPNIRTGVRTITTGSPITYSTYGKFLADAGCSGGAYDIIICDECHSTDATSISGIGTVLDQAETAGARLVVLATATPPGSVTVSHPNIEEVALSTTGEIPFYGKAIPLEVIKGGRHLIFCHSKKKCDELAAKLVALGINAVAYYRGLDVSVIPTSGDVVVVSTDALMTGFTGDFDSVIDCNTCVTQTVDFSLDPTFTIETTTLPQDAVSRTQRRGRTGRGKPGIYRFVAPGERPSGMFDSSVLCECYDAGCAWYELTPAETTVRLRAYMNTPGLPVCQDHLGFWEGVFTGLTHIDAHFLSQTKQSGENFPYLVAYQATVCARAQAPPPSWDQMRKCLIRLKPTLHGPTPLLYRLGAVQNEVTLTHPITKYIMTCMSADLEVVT

[2] = test system: HCV sub-genomic replicon GS4.3 (HuH-7 hepatoma cells); test: Quantitation by ELISA of neomycin phosphotransferase II (NPTII) in the HCV sub-genomic replicon, GS4.3; assay type: cell-based; details: GS4.3 cells, 72 h, read-out: Replicon EC50
From the text: Quantitation by ELISA of the Selectable Marker Protein, Neomycin Phosphotransferase II (NPTII) in the HCV Sub-Genomic Replicon, GS4.3
The HCV sub-genomic replicon (1377/NS3-3′, accession No. AJ242652), stably maintained in HuH-7 hepatoma cells, was created by Lohmann et al. Science 285: 110-113 (1999). The replicon-containing cell culture, designated GS4.3, was obtained from Dr. Christoph Seeger of the Institute for Cancer Research, Fox Chase Cancer Center, Philadelphia, Pa.
GS4.3 cells were maintained at 37° C., 5% CO2, in DMEM (Gibco 11965-092) supplemented with L-glutamine 200 mM (100×) (Gibco25030-081), non-essential amino acids (NEAA)(Biowhittaker 13-114E), heat-inactivated (HI) Fetal Bovine Serum(FBS)(Hyclone SH3007.03) and […] geneticin (G418)(Gibco 10131-035). Cells were sub-divided 1:3 or 4 every 2-3 days.
24 h prior to the assay, GS4.3 cells were collected, counted, and plated in 96-well plates (Costar 3585) at 7500 cells/well in 100 μl standard maintenance medium (above) and incubated in the conditions above. To initiate the assay, culture medium was removed, cells were washed once with PBS (Gibco 10010-023) and 90 μl Assay Medium (DMEM, L-glutamine, NEAA, 10% HI FBS, no G418) was added. Inhibitors were made as a 10× stock in Assay Medium, (3-fold dilutions from 10 μM to […] final concentration, final DMSO concentration 1%), 10 μl were added to duplicate wells, plates were rocked to mix, and incubated as above for 72 h.
An NPTII Elisa kit was obtained from AGDIA, Inc. (Compound direct ELISA test system for Neomycin Phosphotransferase II, PSP 73000/4800). Manufacturer's instructions were followed, with some modifications. 10×PEB-1 lysis buffer was made up to include 500 μM PMSF (Sigma P7626, 50 mM stock in isopropanol). After 72 h incubation, cells were washed once with PBS and 150 μlPEB-1 with PMSF was added per well. Plates were agitated vigorously for 15 minutes, room temperature, then frozen at −70° C. Plates were thawed, lysates were mixed thoroughly, and 100 μl were applied to an NPTII Elisa plate. A standard curve was made. Lysate from DMSO-treated control cells was pooled, serially diluted with PEB-1 with PMSF, and applied to duplicate wells of the ELISA plate, in a range of initial lysate amount of 150 ul-2.5 ul. In addition, 100 μl buffer alone was applied in duplicate as a blank. Plates were sealed and gently agitated at room temperature for 2 h. Following capture incubation, the plates were washed 5×300 μlwith PBS-T (0.5% Tween-20, PBS-T was supplied in the ELISA kit). For detection, a 1× dilution of enzyme conjugate diluent MRS-2 (5×) was made in PBS-T, into which 1:100 dilutions of enzyme conjugates A and B were added, as per instructions. Plates were resealed, and incubated with agitation, covered, room temperature, for 2 h. The washing was then repeated and 100 μlof room temperature TMB substrate was added. After approximately 30 minutes incubation (room temperature, agitation, covered), the reaction was stopped with 50 μl 3M sulfuric acid. Plates were read at 450 nm on a Molecular Devices Versamax plate reader.
Inhibitor effect was expressed as a percentage of DMSO-treated control signal, and inhibition curves were calculated using a 4-parameter equation: y=A+4B-A)/(1+((C/x)^13))), where C is half-maximal activity or EC50.

(2R,6S,13aS,14aR,16aS,Z)-6-(tert-butoxycarbonylamino)-9,9-difluoro-2-(4-fluoroisoindoline-2-carbonyloxy)-5,16-dioxo-1,2,3,5,6,7,8,9,10,11,13 a,14,14a,15,16,16a-hexadecahydrocyclopropa(e)prrolo[1,2-a][1,4]diazacyclopentadecine-14a-carboxylic acid [Compound 1006]
IC50 [1]: < 0.1 µM
EC50 [2]: < 10 µM

CC(C)(C)OC(=O)N[C@H]1CCCCC/C=C\[C@@H]2C[C@@]2(C(=O)NS(=O)(=O)C2(C)CC2)NC(=O)[C@@H]2C[C@@H](OC(=O)N3Cc4ccccc4C3)CN2C1=O [Compound 100, (1S,4R,6S,14S,18R)-1,3-Dihydro-isoindole-2-carboxylic acid 14-tert-butoxycarbonylamino-4-(1-methylcyclopropane-1-sulfonyl)aminocarbonyl-2,15-dioxo-3,16-diaza-tricyclo[14.3.0.0^4,6]nonadec-7-en-18-yl Ester]
IC50 [1]: < 0.1 µM
EC50 ([2]; Hepatitis C virus, Huh-7): < 0.1 µM
